In patent US12180193B2, “Accelerating fibrosarcoma protein degrading compounds and associated methods of use” (Arvinas Operations, Inc., priority 2020, dated 2024):

Legend:
BRAF G466V = biological target: T1, BRAF G466V (Homo sapiens, UniProt P15056, G466V); assay: Cellular assay of target protein degradation, T-Rex 293 cells stably transfected with HA-BRAF G466V (HA immunofluorescence, high content imaging); assay type: cell-based; conditions: T-Rex 293 HA-BRAF G466V; for DC50: half maximal degradation, read-out: BRaf G466V DC50; for Dmax: maximum degradation observed
T1 construct: expressed in transfected cells
T1 sequence (P15056 whole entry G466V): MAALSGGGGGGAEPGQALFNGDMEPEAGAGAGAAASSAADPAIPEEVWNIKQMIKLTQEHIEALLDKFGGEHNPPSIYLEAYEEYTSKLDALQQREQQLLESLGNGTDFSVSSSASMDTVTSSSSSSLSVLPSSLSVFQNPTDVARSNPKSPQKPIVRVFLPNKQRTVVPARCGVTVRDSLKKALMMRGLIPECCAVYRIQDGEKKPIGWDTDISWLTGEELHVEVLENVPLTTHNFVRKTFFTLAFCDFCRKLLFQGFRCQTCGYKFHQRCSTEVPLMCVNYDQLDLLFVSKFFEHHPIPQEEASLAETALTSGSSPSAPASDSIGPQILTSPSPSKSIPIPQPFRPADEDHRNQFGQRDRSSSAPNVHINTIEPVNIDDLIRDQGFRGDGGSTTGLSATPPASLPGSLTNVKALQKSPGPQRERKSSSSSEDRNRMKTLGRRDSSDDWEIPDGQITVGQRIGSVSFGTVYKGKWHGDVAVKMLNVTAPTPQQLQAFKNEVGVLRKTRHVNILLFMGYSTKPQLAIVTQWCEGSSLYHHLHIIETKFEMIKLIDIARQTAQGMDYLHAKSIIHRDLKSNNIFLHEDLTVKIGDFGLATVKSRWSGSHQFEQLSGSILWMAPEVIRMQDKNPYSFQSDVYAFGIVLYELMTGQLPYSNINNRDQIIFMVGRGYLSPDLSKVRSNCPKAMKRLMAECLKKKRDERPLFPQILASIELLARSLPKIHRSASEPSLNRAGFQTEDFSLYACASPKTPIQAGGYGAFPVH
Description: Protocol for a cellular assay of target protein degradation (T-Rex 293 cells). T-Rex 293 cells were purchased from Invitrogen (#R71007), and stably transfected with a pcDNA4/TO_HA-BRAF G466V construct, using 400 ug Zeocin for selection. G466V cells are plated in Dulbecco's Modified Eagle Medium (DMEM; Gibco #11965118) containing 10% fetal bovine serum (FBS; Gibco #16000044) and 0.75 ng/mL doxycycline (Selleckchem #4163) at a density of 5,000 cells/well in 50 μl on poly-D-lysine (PDL) coated, black clear bottom 96-well plates (Corning #354640) and incubated for 24 hours at 37° C. with 5% CO2. The following day 50 ul of tested compound was added at 2x concentration in DMEM with a final concentration ranging from 30 nM to 3 pM in 0.1% dimethylsulfoxide (DMSO), and incubated for 24 hours at 37° C. with 5% CO2. At the end of the experimental treatment, the media was flicked off and cells washed once with phosphate-buffered saline (PBS)++ (PBS with CaCl and MgCl) and gently replacing with 200 μl PBS++ per well. The PBS++ was removed and 50 uL 4% paraformaldehyde (PFA; EMS #15710) in PBS++ was added, and incubate at room temperature for 15 minutes. Cells were washed once with PBS++ and 50 uL 0.1% Triton X-100 (Fisher #BP151-500) in PBS++ was added. Plate was incubate for 5 minutes at room temperature. Cells were was once with PBS++. Cells were blocked with 100 uL Licor blocking buffer (Licor #927-50000) for 1 hour at room temperature. Next, 50 uL of HA antibody (CST #3724) at 1:1000 in Licor blocking buffer was added, and the plate incubate overnight at 4° C. The plates were parafilmed to prevent evaporation. Plate was washed three times with 200 uL PBS++. Fifty microliters of HCS secondary antibody solution [1:1000 Hoechst (Invitrogen #H3570), 1:1000 phalloidin (Invitrogen #A22287) and 1:5000 Alexa fluor (Invitrogen #A11008)] was added and incubated for 1 hour. Plate was wash three times with 200 uL PBS++, and imaged on a high content reader (ImageXpress Micro XLS, Molecular Devices).
(§1) The concentration of exemplary compound that leads to half maximal degradation (DC50) as well as the maximum degradation observed (Dmax, conventionally expressed as a percentage of control), which are below in Table 2 for the exemplary compounds of Table 1.

BRAF V600E = biological target: T2, BRAF V600E (Homo sapiens, UniProt P15056, V600E); assay: Cellular assay of target protein degradation, T-Rex 293 cells stably transfected with HA-BRAF_V600E (HA immunofluorescence, high content imaging); assay type: cell-based; conditions: T-Rex 293 HA-BRAF V600E; for DC50: half maximal degradation, read-out: BRaf V600E DC50; for Dmax: maximum degradation observed
T2 construct: expressed in transfected cells
T2 sequence (P15056 whole entry V600E): as the sequence (P15056 whole entry G466V) above, with V466G, V600E counted along it
Description: Protocol for a cellular assay of target protein degradation (T-Rex 293 cells). T-Rex 293 cells were purchased from Invitrogen (#R71007), and stably transfected with a pcDNA4/TO_HA-BRAF_V600E construct, using 400 ug Zeocin for selection. V600e cells are plated in Dulbecco's Modified Eagle Medium (DMEM; Gibco #11965118) containing 10% fetal bovine serum (FBS; Gibco #16000044) and 1 ng/mL doxycycline (Selleckchem #4163) at a density of 5,000 cells/well in 50 μl on poly-D-lysine (PDL) coated, black clear bottom 96-well plates (Corning #354640) and incubated for 24 hours at 37° C. with 5% C02. The following day 50 ul of tested compound was added at 2x concentration in DMEM with a final concentration ranging from 1 μM to 0.1 nM in 0.1% dimethylsulfoxide (DMSO), and incubated for 24 hours at 37° C. with 5% CO2. At the end of the experimental treatment, the media was flicked off and cells washed once with phosphate-buffered saline (PBS)++ (PBS with CaCl and MgCl) and gently replacing with 200 μl PBS++ per well. The PBS++ was removed and 50 uL 4% paraformaldehyde (PFA; EMS #15710) in PBS++ was added, and incubate at room temperature for 15 minutes. Cells were washed once with PBS++ and 50 uL 0.1% Triton X-100 (Fisher #BP151-500) in PBS++ was added. Plate was incubate for 5 minutes at room temperature. Cells were was once with PBS++. Cells were blocked with 100 uL Licor blocking buffer (Licor #927-50000) for 1 hour at room temperature. Next, 50 uL of HA antibody (CST #3724) at 1:1000 in Licor blocking buffer was added, and the plate incubate overnight at 4° C. The plates were parafilmed to prevent evaporation. Plate was washed three times with 200 uL PBS++. Fifty microliters of HCS secondary antibody solution [1:1000 Hoechst (Invitrogen #H3570), 1:1000 phalloidin (Invitrogen #A22287) and 1:5000 Alexa fluor (Invitrogen #A11008)] was added and incubated for 1 hour. Plate was wash three times with 200 uL PBS++, and imaged on a high content reader (ImageXpress Micro XLS, Molecular Devices).
as §1

Which DC50 (BRAF G466V) does the source give for `CCc1ccc(NS(=O)(=O)N2CC[C@@H](F)C2)c(F)c1C(=O)c1c[nH]c2ncc(-c3ccc(N4CCC(CN5CCC(c6ccc7c(c6)CN([C@H]6CCC(=O)NC6=O)C7=O)CC5)CC4)cc3)cc12` [Compound 265, (3R)-N-{3-[5-(4-{4-[(4-{2-[(3S)-2,6-dioxopiperidin-3-yl]-1-oxo-2,3-dihydro-1H-isoindol-5-yl}piperidin-1-yl)methyl]piperidin-1-yl}phenyl)-1H-pyrrolo [2,3-b]pyridine-3-carbonyl]-4-ethyl-2-fluorophenyl}-3-fluoropyrrolidine-1-sulfonamide] here?
The DC50 was greater than 30 nM.

And the DC50 (BRAF V600E)?
The DC50 was greater than 500 nM.

Which results are given for `O=C1CCC(N2Cc3cc(CN4CCN(c5ccc(-c6cnc7[nH]cc(C(=O)c8c(F)ccc(NS(=O)(=O)N9CC[C@@H](F)C9)c8F)c7c6)cc5)C[C@@H]4CO)ccc3C2=O)C(=O)N1` (stereo partly drawn) [Compound 78, (3R)-N-[3-(5-{4-[(3R)-4-{[2-(2,6-dioxopiperidin-3-yl)-1-oxo-2,3-dihydro-1H-isoindol-5-yl]methyl}-3-(hydroxymethyl)piperazin-1-yl]phenyl}-1H-pyrrolo [2,3-b]pyridine-3-carbonyl)-2,4-difluorophenyl]-3-fluoropyrrolidine-1-sulfonamide]?
DC50 (BRAF G466V): > 30 nM; DC50 (BRAF V600E): > 500 nM; Dmax (BRAF V600E): > 70%

For `O=C1CCC(N2Cc3cc(C4CCN(CC5CCN(c6ccc(-c7cnc8[nH]cc(C(=O)c9c(Cl)ccc(NS(=O)(=O)N%10CC[C@@H](F)C%10)c9Cl)c8c7)cc6)CC5)CC4)ccc3C2=O)C(=O)N1` (stereo partly drawn) [Compound 268, (3R)-N-[2,4-dichloro-3-(5-{4-[4-({4-[2-(2,6-dioxopiperidin-3-yl)-1-oxo-2,3-dihydro-1H-isoindol-5-yl]piperidin-1-yl}methyl)piperidin-1-yl]phenyl}-1H-pyrrolo [2,3-b]pyridine-3-carbonyl)phenyl]-3-fluoropyrrolidine-1-sulfonamide], which DC50 (BRAF G466V) is on record?
The DC50 was 1 to 10 nM.

What about the Dmax (BRAF G466V) of the same molecule?
The Dmax was less than 35%.

What about the DC50 (BRAF V600E) of the same molecule?
Its DC50 is 50 to 500 nM.

What about the Dmax (BRAF V600E) of the same molecule?
The Dmax was 35 to 70%.

How did the DC50 (BRAF G466V) turn out when `O=C1CCC(N2Cc3cc(C4CCN(C5CCN(c6ccc(-c7cnc8[nH]cc(C(=O)c9c(F)ccc(NS(=O)(=O)N%10CC[C@@H](F)C%10)c9F)c8c7)cc6)CC5)CC4)ccc3C2=O)C(=O)N1` (stereo partly drawn) [Compound 326, (3R)-N-{3-[5-(4-{4-[2-(2,6-dioxopiperidin-3-yl)-1-oxo-2,3-dihydro-1H-isoindol-5-yl]-[1,4′-bipiperidin]-1′-yl}phenyl)-1H-pyrrolo[2,3-b]pyridine-3-carbonyl]-2,4-difluorophenyl}-3-fluoropyrrolidine-1-sulfonamide] was run?
Its DC50 is less than 1 nM.

And the Dmax (BRAF G466V)?
Its Dmax is greater than 70%.

What about the DC50 (BRAF V600E) of the same molecule?
The DC50 was 5 to 50 nM.

What about the Dmax (BRAF V600E) of the same molecule?
The Dmax was 35 to 70%.

With `O=C1CCC(N2Cc3cc(CCOCCN4CCC(c5ccc(-c6cnc7[nH]cc(C(=O)c8c(F)ccc(NS(=O)(=O)N9CC[C@@H](F)C9)c8F)c7c6)cc5)CC4)ccc3C2=O)C(=O)N1` (stereo partly drawn) [Compound 151, (3R)-N-[3-(5-{4-[1-(2-{2-[2-(2,6-dioxopiperidin-3-yl)-1-oxo-2,3-dihydro-1H-isoindol-5-yl]ethoxy}ethyl)piperidin-4-yl]phenyl}-1H-pyrrolo[2,3-b]pyridine-3-carbonyl)-2,4-difluorophenyl]-3-fluoropyrrolidine-1-sulfonamide] as the molecule, how does the DC50 (BRAF G466V) read?
Its DC50 is 1 to 10 nM.

And the Dmax (BRAF G466V)?
The Dmax was greater than 70%.

What about the DC50 (BRAF V600E) of the same molecule?
The DC50 was 50 to 500 nM.

And the Dmax (BRAF V600E)?
The Dmax was 35 to 70%.

For `O=C1CC[C@H](N2Cc3cc(N4CCN(CC5CCN(c6ccc(-c7cnc8[nH]cc(C(=O)c9c(F)ccc(NS(=O)(=O)N%10CC[C@@H](F)C%10)c9F)c8c7)cc6)CC5)CC4)ccc3C2=O)C(=O)N1` [Compound 219, (3R)-N-{3-[5-(4-{4-[(4-{2-[(3S)-2,6-dioxopiperidin-3-yl]-1-oxo-2,3-dihydro-1H-isoindol-5-yl}piperazin-1-yl)methyl]piperidin-1-yl}phenyl)-1H-pyrrolo [2,3-b]pyridine-3-carbonyl]-2,4-difluorophenyl}-3-fluoropyrrolidine-1-sulfonamide], which DC50 (BRAF G466V) is on record?
Its DC50 is 1 to 10 nM.

And the Dmax (BRAF G466V)?
Its Dmax is greater than 70%.

And the DC50 (BRAF V600E)?
The DC50 was 5 to 50 nM.

What about the Dmax (BRAF V600E) of the same molecule?
The Dmax was 35 to 70%.

Which results are given for `O=C1CCC(N2Cc3cc(N4CCC(C5CN(c6ccc(-c7cnc8[nH]cc(C(=O)c9c(F)ccc(NS(=O)(=O)N%10CC[C@@H](F)C%10)c9F)c8c7)cc6)C5)CC4)ccc3C2=O)C(=O)N1` (stereo partly drawn) [Compound 293, (3R)-N-(3-{5-[4-(3-{1-[2-(2,6-dioxopiperidin-3-yl)-1-oxo-2,3-dihydro-1H-isoindol-5-yl]piperidin-4-yl}azetidin-1-yl)phenyl]-1H-pyrrolo[2,3-b]pyridine-3-carbonyl}-2,4-difluorophenyl)-3-fluoropyrrolidine-1-sulfonamide]?
DC50 (BRAF G466V): 1 to 10 nM; Dmax (BRAF G466V): 35 to 70%; DC50 (BRAF V600E): 50 to 500 nM; Dmax (BRAF V600E): 35 to 70%

What does the source list for `O=C1CC[C@H](NC(=O)c2cc(C3CCN(CC4CCN(c5ccc(-c6cnc7[nH]cc(C(=O)c8c(F)ccc(NS(=O)(=O)N9CC[C@@H](F)C9)c8F)c7c6)cc5)CC4)CC3)ccc2F)C(=O)N1` [Compound 196, 5-(1-{[1-(4-{3-[2,6-difluoro-3-({[(3R)-3-fluoropyrrolidin-1-yl]sulfonyl}amino)benzoyl]-1H-pyrrolo[2,3-b]pyridin-5-yl}phenyl)piperidin-4-yl]methyl}piperidin-4-yl)-N-[(3S)-2,6-dioxopiperidin-3-yl]-2-fluorobenzamide]?
DC50 (BRAF G466V): 1 to 10 nM; Dmax (BRAF G466V): 35 to 70%; DC50 (BRAF V600E): 5 to 50 nM; Dmax (BRAF V600E): 35 to 70%

`O=C1CCC(N2Cc3cc(C(O)CCN4CC5(C4)CN(c4ccc(-c6cnc7[nH]cc(C(=O)c8c(F)ccc(NS(=O)(=O)N9CC[C@@H](F)C9)c8F)c7c6)cc4)C5)ccc3C2=O)C(=O)N1` (stereo partly drawn) [Compound 61, (3R)-N-(3-{5-[4-(6-{3-[2-(2,6-dioxopiperidin-3-yl)-1-oxo-2,3-dihydro-1H-isoindol-5-yl]-3-hydroxypropyl}-2,6-diazaspiro[3.3]heptan-2-yl)phenyl]-1H-pyrrolo[2,3-b]pyridine-3-carbonyl}-2,4-difluorophenyl)-3-fluoropyrrolidine-1-sulfonamide] was tested. Which DC50 (BRAF G466V) did it give?
Its DC50 is 1 to 10 nM.

What about the Dmax (BRAF G466V) of the same molecule?
Its Dmax is 35 to 70%.

What about the DC50 (BRAF V600E) of the same molecule?
The DC50 was 5 to 50 nM.

And the Dmax (BRAF V600E)?
The Dmax was 35 to 70%.

Which results are given for `O=C1CCC(N2Cc3cc(N4CCC(CN5CCC6(CCN(c7ncc(-c8cnc9[nH]cc(C(=O)c%10c(F)ccc(NS(=O)(=O)N%11CC[C@@H](F)C%11)c%10F)c9c8)cn7)CC6)C5)CC4)ccc3C2=O)C(=O)N1` (stereo partly drawn) [Compound 96, (3R)-N-[3-(5-{2-[2-({1-[2-(2,6-dioxopiperidin-3-yl)-1-oxo-2,3-dihydro-1H-isoindol-5-yl]piperidin-4-yl}methyl)-2,8-diazaspiro[4.5]decan-8-yl]pyrimidin-5-yl}-1H-pyrrolo[2,3-b]pyridine-3-carbonyl)-2,4-difluorophenyl]-3-fluoropyrrolidine-1-sulfonamide]?
DC50 (BRAF V600E): < 5 nM; Dmax (BRAF V600E): < 35%
